# Assay results published in patent US20230407243A1, “GENETIC PLATFORM TO INVESTIGATE THE FUNCTIONS OF BACTERIAL DRUG EFFLUX PUMPS” (priority 2022, published 2023).
# Key:
# Assay in all cases: MIC susceptibility profiling, porinated efflux platform
# Format in all cases: cell-based, Escherichia coli
# EKO-35 araC::acrB Pore = details: for Fold changes of MICs: EKO-35 araC::acr-B Pore compared to EKO-35-Pore; for Minimum inhibitory concentration, EKO-35 araC::acrB Pore / MIC: Table 14A, porinated, technical duplicate; for MIC: Escherichia coli, read-out: Minimum inhibitory concentration, EKO-35 araC::acrB Pore
# Outline: (§1)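 E. coli strains carrying a genomically integrated constitutive fhuA ΔC/Δ4L pore were grown 18 h in LB at 37 °C, then diluted 1/2000 in MHB II from OD600 ~1.0. Compounds were tested in duplicate, 2-fold serial titration, for 18 h at 37 °C with shaking. MIC came from OD600 with the pre-incubation background subtracted.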
# EKO-35 araC::macAB Pore = details: for Fold changes of MICs: EKO-35 araC::macAB Pore compared to EKO-35-Pore; for Minimum inhibitory concentration / MIC: EKO-35 araC::macAB Pore, technical duplicate; for MIC: Escherichia coli, read-out: Minimum inhibitory concentration
# Outline: as §1
# EKO-35 araC::mexCD Pore = details: for Fold changes of MICs: EKO-35 araC::mexCD Pore compared to EKO-35-Pore; for Minimum inhibitory concentration / MIC: EKO-35 araC::mexCD Pore, technical duplicate; for MIC: Escherichia coli, read-out: Minimum inhibitory concentration
# Outline: as §1
# EKO-35 araC::mdtEF Pore = details: for Fold changes of MICs: EKO-35 araC::mdtEF Pore compared to EKO-35-Pore; for Minimum inhibitory concentration, EKO-35 araC::mdtEF Pore / MIC: Table 14A, porinated, technical duplicate; for MIC: Escherichia coli, read-out: Minimum inhibitory concentration, EKO-35 araC::mdtEF Pore
# Outline: as §1
# EKO-35 araC::mdtBC Pore = details: for Fold changes of MICs: EKO-35 araC::mdtBC Pore compared to EKO-35-Pore; for Minimum inhibitory concentration / MIC: EKO-35 araC::mdtBC Pore, technical duplicate; for MIC: Escherichia coli, read-out: Minimum inhibitory concentration
# Outline: as §1
# EKO-35 araC::acrEF Pore = details: for Fold changes of MICs: EKO-35 araC::acrEF Pore compared to EKO-35-Pore; for Minimum inhibitory concentration, EKO-35 araC::acrEF Pore / MIC: Table 14A, porinated, technical duplicate; for MIC: Escherichia coli, read-out: Minimum inhibitory concentration, EKO-35 araC::acrEF Pore
# Outline: as §1
# EKO-35 araC::emrAB Pore = details: for Fold changes of MICs: EKO-35 araC::emrAB Pore compared to EKO-35-Pore; for Minimum inhibitory concentration / MIC: EKO-35 araC::emrAB Pore, technical duplicate; for MIC: Escherichia coli, read-out: Minimum inhibitory concentration
# Outline: as §1
SMILES,Fold changes of MICs (EKO-35 araC::acrB Pore),Fold changes of MICs (EKO-35 araC::macAB Pore),Fold changes of MICs (EKO-35 araC::mexCD Pore),Fold changes of MICs (EKO-35 araC::mdtEF Pore),Fold changes of MICs (EKO-35 araC::mdtBC Pore),Fold changes of MICs (EKO-35 araC::acrEF Pore),Fold changes of MICs (EKO-35 araC::emrAB Pore),MIC (EKO-35 araC::acrB Pore),MIC (EKO-35 araC::macAB Pore),MIC (EKO-35 araC::mexCD Pore),MIC (EKO-35 araC::mdtEF Pore),MIC (EKO-35 araC::mdtBC Pore),MIC (EKO-35 araC::acrEF Pore),MIC (EKO-35 araC::emrAB Pore),also measured
C=C1CCO[C@]2([C@@H](O)[C@@](C)(O)CO)NC(=O)[C@@]1(O)NC2=O [Bicyclomycin],1 fold,1 fold,1 fold,1 fold,1 fold,1 fold,1 fold,,,,,,,,"Minimum inhibitory concentration, EKO-35 araC::acrB Pore (EKO-35 araC::acrB Pore): 200 µg/mL; Minimum inhibitory concentration (EKO-35 araC::macAB Pore): 200 µg/mL; Minimum inhibitory concentration (EKO-35 araC::mexCD Pore): 200 µg/mL; Minimum inhibitory concentration, EKO-35 araC::mdtEF Pore (EKO-35 araC::mdtEF Pore): 200 µg/mL; Minimum inhibitory concentration (EKO-35 araC::mdtBC Pore): 200 µg/mL; Minimum inhibitory concentration, EKO-35 araC::acrEF Pore (EKO-35 araC::acrEF Pore): 200 µg/mL; Minimum inhibitory concentration (EKO-35 araC::emrAB Pore): 200 µg/mL"
N#CC(C#N)=NNc1cccc(Cl)c1 [CCCP],1 fold,1 fold,1 fold,1 fold,2 fold,1 fold,2 fold,,,,,,,,"Minimum inhibitory concentration, EKO-35 araC::acrB Pore (EKO-35 araC::acrB Pore): 6.25 µg/mL; Minimum inhibitory concentration (EKO-35 araC::macAB Pore): 6.25 µg/mL; Minimum inhibitory concentration (EKO-35 araC::mexCD Pore): 6.25 µg/mL; Minimum inhibitory concentration, EKO-35 araC::mdtEF Pore (EKO-35 araC::mdtEF Pore): 6.25 µg/mL; Minimum inhibitory concentration (EKO-35 araC::mdtBC Pore): 12.5 µg/mL; Minimum inhibitory concentration, EKO-35 araC::acrEF Pore (EKO-35 araC::acrEF Pore): 3.125 µg/mL; Minimum inhibitory concentration (EKO-35 araC::emrAB Pore): 12.5 µg/mL; efflux pump-mediated resistance vs EKO-35-Pore (EKO-35 araC::emrAB Pore; EmrAB, porinated strain): no longer provided resistance"
[H]/N=C(\N/C(=N/[H])NCCCCCCNC(=N)NC(=N)Nc1ccc(Cl)cc1)Nc1ccc(Cl)cc1 [Chlorhexidine],1 fold,1 fold,1 fold,1 fold,1 fold,1 fold,1 fold,0.391 µg/mL,0.391 µg/mL,0.391 µg/mL,0.391 µg/mL,0.391 µg/mL,0.391 µg/mL,0.391 µg/mL,
"CCCCCCCCCCCCOS(=O)(=O)[O-].[Na+] [SDS, sodium dodecyl sulphate]",32 fold,1 fold,4 fold,32 fold,1 fold,32 fold,4 fold,,31.2 µg/mL,125 µg/mL,,31.2 µg/mL,,125 µg/mL,
CN[C@@H]1[C@H](O)[C@H](NC)[C@H]2O[C@@]3(O)C(=O)C[C@@H](C)O[C@H]3O[C@@H]2[C@H]1O [Spectinomycin],2 fold,1 fold,1 fold,1 fold,1 fold,1 fold,1 fold,25 µg/mL,,,,,,,
NCCCNCCCCNCCCN [Spermine],1 fold,1 fold,1 fold,1 fold,1 fold,1 fold,1 fold,,,,,,,,
[H]/N=C(/N)N[C@H]1[C@H](O)[C@@H](O)[C@H](O[C@@H]2O[C@@H](C)[C@](O)(C=O)[C@H]2O[C@@H]2O[C@@H](CO)[C@H](O)[C@@H](O)[C@@H]2NC)[C@@H](N/C(N)=N\[H])[C@@H]1O [Streptomycin],2 fold,1 fold,1 fold,1 fold,1 fold,1 fold,1 fold,6.25 µg/mL,3.12 µg/mL,3.12 µg/mL,3.12 µg/mL,3.12 µg/mL,3.12 µg/mL,3.12 µg/mL,
Nc1ccc(S(=O)(=O)Nc2nccs2)cc1 [Sulfathiazole],2 fold,2 fold,1 fold,2 fold,1 fold,1 fold,2 fold,10 µg/mL,10 µg/mL,,10 µg/mL,,,10 µg/mL,
C[n+]1c2cc(N)ccc2cc2ccc(N)cc21.[Cl-] [acriflavine],16 fold,2 fold,4 fold,2 fold,1 fold,8 fold,2 fold,,,,,,,,"Minimum inhibitory concentration, EKO-35 araC::acrB Pore (EKO-35 araC::acrB Pore): 1.563 µg/mL; Minimum inhibitory concentration (EKO-35 araC::macAB Pore): 0.195 µg/mL; Minimum inhibitory concentration (EKO-35 araC::mexCD Pore): 0.391 µg/mL; Minimum inhibitory concentration, EKO-35 araC::mdtEF Pore (EKO-35 araC::mdtEF Pore): 0.195 µg/mL; Minimum inhibitory concentration (EKO-35 araC::mdtBC Pore): 0.098 µg/mL; Minimum inhibitory concentration, EKO-35 araC::acrEF Pore (EKO-35 araC::acrEF Pore): 0.781 µg/mL; Minimum inhibitory concentration (EKO-35 araC::emrAB Pore): 0.195 µg/mL"
CC1(C)S[C@@H]2[C@H](NC(=O)[C@H](N)c3ccccc3)C(=O)N2[C@H]1C(=O)O [ampicillin],8 fold,1 fold,1 fold,1 fold,1 fold,2 fold,1 fold,,1.56 µg/mL,1.56 µg/mL,1.56 µg/mL,0.781 µg/mL,3.12 µg/mL,0.781 µg/mL,
CC[C@H]1OC(=O)[C@H](C)[C@@H](O[C@H]2C[C@@](C)(OC)[C@@H](O)[C@H](C)O2)[C@H](C)[C@@H](O[C@@H]2O[C@H](C)C[C@H](N(C)C)[C@H]2O)[C@](C)(O)C[C@@H](C)CN(C)[C@H](C)[C@@H](O)[C@]1(C)O [azithromycin],4 fold,2 fold,2 fold,4 fold,1 fold,4 fold,1 fold,0.195 µg/mL,0.098 µg/mL,0.098 µg/mL,0.195 µg/mL,0.049 µg/mL,0.195 µg/mL,0.049 µg/mL,"fold increase of MIC over EKO-35 (EKO-35 araC::macAB Pore; MacAB with a porinated OM): 2 fold; efflux pump-mediated resistance vs EKO-35-Pore (EKO-35 araC::mexCD Pore; MexCD, OM compromised): no longer associated MexCD with resistance"
O=C(N[C@H](CO)[C@H](O)c1ccc([N+](=O)[O-])cc1)C(Cl)Cl [chloramphenicol],4 fold,1 fold,1 fold,1 fold,1 fold,1 fold,1 fold,,0.781 µg/mL,0.781 µg/mL,0.781 µg/mL,0.781 µg/mL,0.781 µg/mL,0.781 µg/mL,
O=C(Nc1cccc(Oc2c(F)c(F)c(F)c(F)c2F)c1)c1ccccc1 [compound 1],1 fold,1 fold,1 fold,1 fold,1 fold,1 fold,1 fold,,,,,,,,"Minimum inhibitory concentration, EKO-35 araC::acrB Pore (EKO-35 araC::acrB Pore): 320 µg/mL; Minimum inhibitory concentration (EKO-35 araC::macAB Pore): 320 µg/mL; Minimum inhibitory concentration (EKO-35 araC::mexCD Pore): 320 µg/mL; Minimum inhibitory concentration, EKO-35 araC::mdtEF Pore (EKO-35 araC::mdtEF Pore): 320 µg/mL; Minimum inhibitory concentration (EKO-35 araC::mdtBC Pore): 320 µg/mL; Minimum inhibitory concentration, EKO-35 araC::acrEF Pore (EKO-35 araC::acrEF Pore): 320 µg/mL; Minimum inhibitory concentration (EKO-35 araC::emrAB Pore): 320 µg/mL"
COc1cccc2c1C(=O)c1c(O)c3c(c(O)c1C2=O)C[C@@](O)(C(C)=O)C[C@@H]3O[C@H]1C[C@H](N)[C@H](O)[C@H](C)O1 [daunorubicin],,2 fold,16 fold,64 fold,4 fold,32 fold,2 fold,,1.56 µg/mL,12.5 µg/mL,50 µg/mL,3.12 µg/mL,25 µg/mL,1.56 µg/mL,efflux pump-mediated resistance vs EKO-35-Pore (EKO-35 araC::mdtBC Pore; MdtBC with the pore): associated with resistance
CO[C@H]1/C=C/O[C@@]2(C)Oc3c(C)c(O)c4c(O)c(c(/C=N/N5CCN(C)CC5)c(O)c4c3C2=O)NC(=O)/C(C)=C\C=C\[C@H](C)[C@H](O)[C@@H](C)[C@@H](O)[C@@H](C)[C@H](OC(C)=O)[C@@H]1C [rifampicin],,,,,,,,1.56 µg/mL,0.391 µg/mL,0.391 µg/mL,0.391 µg/mL,,0.391 µg/mL,0.195 µg/mL,
